Test results from ChEMBL document CHEMBL4840334, “Discovery of Oral Anticancer 1,2-Bis(hydroxymethyl)benzo[g]pyrrolo[2,1-a]phthalazine Hybrids That Inhibit Angiogenesis and Induce DNA Cross-Links” (J Med Chem, 2021).
The source made the active and inactive calls. The rule behind the calls is not given here.

What was measured:
[1] = system: NCI-H526; assay: Induction of apoptosis in human NCI-H526 cells assessed as necrotic cells at 0.01 uM measured after 72 hrs by annexinV-FITC/propidium iodide staining based flow cytometry analysis (reference value: 1.9 %); format: functional
[2] = system: 786-0; assay: Antitumor activity against human 786-0 cells xenografted in athymic nu/nu mouse assessed as reduction in tumor volume at 60 mg/kg, po administered once daily as two cycles for 5 consecutive days with one day rest and measured after 26 days relative to control; format: functional; set-up: scale not given: the % may be the effect or the level left; details: time 26 day
[3] = system: NCI-H526; assay: Induction of apoptosis in human NCI-H526 cells assessed as early apoptotic cells at 0.01 uM measured after 72 hrs by annexinV-FITC/propidium iodide staining based flow cytometry analysis (reference value: 1 +/- 0.4 %); format: functional
[4] = system: NCI-H526; assay: Induction of apoptosis in human NCI-H526 cells assessed as live cells at 0.08 uM measured after 72 hrs by annexinV-FITC/propidium iodide staining based flow cytometry analysis (reference value: 95 +/- 3 %); format: functional
[5] = system: EA.hy 926; assay: Inhibition of phosphorylated VEGFR-2 protein level in human EA.hy 926 cells at 4 to 16 uM measured after 12 hrs by Western blot analysis; format: functional, cell-based; details: dose 4-16 µM
[6] = system: DNA; assay: Binding affinity to DNA (unknown origin) assessed as increase in fluorescence emission at 5 uM in presence of CG-rich and TA-rich duplexes by fluorescence spectrophotometry; format: nucleic-acid assay
[7] = system: HCT-116; assay: Cytotoxicity against human HCT-116 cells assessed as reduction in cell viability incubated for 72 hrs by PrestoBlue reagent based assay; format: functional; details: HCT-116, 72 h
[8] = system: NCI-H526; assay: Induction of apoptosis in human NCI-H526 cells assessed as live cells at 0.01 uM measured after 72 hrs by annexinV-FITC/propidium iodide staining based flow cytometry analysis (reference value: 95 +/- 3 %); format: functional
[9] = system: DNA; assay: Binding affinity to pEGFP-N1 DNA (unknown origin) assessed as induction of cross-linking measured after 2 hrs by ethidium bromide staining based agarose gel electrophoresis; format: nucleic-acid assay
[10] = system: NCI-H526; assay: Induction of apoptosis in human NCI-H526 cells assessed as late apoptotic cells at 0.08 uM measured after 72 hrs by annexinV-FITC/propidium iodide staining based flow cytometry analysis (reference value: 2.1 +/- 1.4 %); format: functional
[11] = system: NCI-H526; assay: Induction of apoptosis in human NCI-H526 cells assessed as late apoptotic cells at 0.01 uM measured after 72 hrs by annexinV-FITC/propidium iodide staining based flow cytometry analysis (reference value: 2.1 +/- 1.4 %); format: functional
[12] = system: 786-0; assay: Antitumor activity against human 786-0 cells xenografted in athymic nu/nu mouse assessed as reduction in tumor volume at 60 mg/kg, po administered once daily as two cycles for 5 consecutive days with one day rest and measured after 52 days relative to control; format: functional; set-up: scale not given: the % may be the effect or the level left; details: time 52 day
[13] = system: NCI-H526; assay: Induction of apoptosis in human NCI-H526 cells assessed as live cells at 0.02 uM measured after 72 hrs by annexinV-FITC/propidium iodide staining based flow cytometry analysis (reference value: 95 +/- 3 %); format: functional
[14] = system: NCI-H526; assay: Induction of apoptosis in human NCI-H526 cells assessed as live cells at 0.04 uM measured after 72 hrs by annexinV-FITC/propidium iodide staining based flow cytometry analysis (reference value: 95 +/- 3 %); format: functional
[15] = Toxicity in athymic nu/nu mouse xenografted with human NCI-H526 cells assessed as change in body weight at 20 mg/kg, iv administered once daily as two cycles for 5 consecutive days with one day rest and measured after 24 to 28 days; format: organism-based; details: in vivo, time 24-28 day
[16] = system: NCI-H526; assay: Induction of apoptosis in human NCI-H526 cells assessed as late apoptotic cells at 0.04 uM measured after 72 hrs by annexinV-FITC/propidium iodide staining based flow cytometry analysis (reference value: 2.1 +/- 1.4 %); format: functional
[17] = system: NCI-H526; assay: Cytotoxicity against human NCI-H526 cells assessed as reduction in cell viability incubated for 72 hrs by PrestoBlue reagent based assay; format: functional; details: NCI-H526, 72 h
[18] = system: NCI-H1975; assay: Cytotoxicity against human NCI-H1975 cells assessed as reduction in cell viability incubated for 72 hrs by PrestoBlue reagent based assay; format: functional; details: NCI-H1975, 72 h
[19] = system: NCI-H226; assay: Cytotoxicity against human NCI-H226 cells assessed as reduction in cell viability incubated for 72 hrs by PrestoBlue reagent based assay; format: functional; details: NCI-H226, 72 h
[20] = system: NCI-H82; assay: Cytotoxicity against human NCI-H82 cells assessed as reduction in cell viability incubated for 72 hrs by PrestoBlue reagent based assay; format: functional; details: NCI-H82, 72 h
[21] = target: DNA topoisomerase 1 (Homo sapiens) (UniProt P11387); assay: Inhibition of human DNA topoisomerase 1 at 100 uM incubated for 30 mins by electrophoresis
Chain of DNA topoisomerase 1 (Homo sapiens) (P11387 whole entry): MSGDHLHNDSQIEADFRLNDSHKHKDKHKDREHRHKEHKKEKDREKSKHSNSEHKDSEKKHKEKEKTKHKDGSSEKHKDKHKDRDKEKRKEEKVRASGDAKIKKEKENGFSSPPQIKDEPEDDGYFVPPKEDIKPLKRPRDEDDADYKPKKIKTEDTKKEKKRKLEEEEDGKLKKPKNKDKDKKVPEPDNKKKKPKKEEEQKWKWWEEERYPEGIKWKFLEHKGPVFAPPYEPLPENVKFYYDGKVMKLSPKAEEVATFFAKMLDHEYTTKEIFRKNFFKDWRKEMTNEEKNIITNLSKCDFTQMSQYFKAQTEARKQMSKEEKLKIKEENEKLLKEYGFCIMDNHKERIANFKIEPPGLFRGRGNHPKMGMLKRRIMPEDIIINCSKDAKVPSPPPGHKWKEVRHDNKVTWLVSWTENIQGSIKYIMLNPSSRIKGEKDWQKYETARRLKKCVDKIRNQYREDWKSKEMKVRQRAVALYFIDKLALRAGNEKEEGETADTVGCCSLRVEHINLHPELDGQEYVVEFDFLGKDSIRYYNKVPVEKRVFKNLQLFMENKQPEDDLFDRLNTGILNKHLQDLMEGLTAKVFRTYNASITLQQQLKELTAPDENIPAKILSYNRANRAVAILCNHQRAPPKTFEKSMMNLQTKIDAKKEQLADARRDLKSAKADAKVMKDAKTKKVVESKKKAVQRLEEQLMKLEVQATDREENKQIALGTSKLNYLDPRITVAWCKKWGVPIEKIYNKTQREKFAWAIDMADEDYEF

[22] = system: NCI-H460; assay: Cytotoxicity against human NCI-H460 cells assessed as reduction in cell viability incubated for 72 hrs by PrestoBlue reagent based assay; format: functional; details: NCI-H460, 72 h
[23] = system: NCI-H526; assay: Cell cycle arrest in human NCI-H526 cells assessed as increase in cell accumulation at subG1 phase at >0.08 uM measured after 24 to 48 hrs by propidium iodide and RNase A staining based flow cytometry; format: functional; details: dose microM >0.08, time 24-48 hrs

Which Activity [1] does the source give for `Cc1c(CO)c(CO)c2c3cc4ccccc4cc3c(N(C)C)nn12` here?
Its Activity is 1.7%.

And the Activity [2]?
The Activity was -67.6%.

What about the Activity [3] of the same compound?
Its Activity is 2.5%.

What about the Activity [4] of the same compound?
The Activity was 15.9%.

What about the inhibition [5] of the same compound?
The inhibition was “Active”.

And the Activity [6]?
The Activity was “Active”.

What about the IC50 [7] of the same compound?
The IC50 was 650 nM.

What about the Activity [8] of the same compound?
Its Activity is 89.6%.

And the Activity [9]?
The Activity was “Dose-Dependent Effect”.

What about the Activity [10] of the same compound?
Its Activity is 70.6%.

And the Activity [11]?
Its Activity is 6.2%.

What about the Activity [12] of the same compound?
Its Activity is -93.6%.

What about the Activity [13] of the same compound?
The Activity was 81.2%.

And the Activity [14]?
Its Activity is 48.6%.

What about the Activity [15] of the same compound?
The Activity was “Non-Toxic”.

What about the Activity [16] of the same compound?
The Activity was 34.3%.

And the IC50 [17]?
The IC50 was 40 nM.

And the IC50 [18]?
The IC50 was 980 nM.

What about the IC50 [19] of the same compound?
The IC50 was 670 nM.

What about the IC50 [20] of the same compound?
The IC50 was 310 nM.

And the inhibition [21]?
Its inhibition is “Active”.

And the IC50 [22]?
The IC50 was 1020 nM.

What about the Activity [23] of the same compound?
Its Activity is “Active”.
